# In patent US5021439A, “Cerebral function ameliorating agents related to Tan-950 A” (priority 1988, dated 1991):
# Read-outs that look alike come from different tables or passages of the source.
# What was measured:
# [1] = Conversion of each component of TAN-950 in aqueous solution (HPLC); format: physicochemical; conditions: 60° C.
# Text: The mixture of TAN-950A - E was applied to HPLC in order to isolate each component thereof and each component was isolated as approximately single peak compound.
# [2] = test system: neurons of rat hippocampus; assay: Excitatory action on neurons of rat hippocampus in vitro (CA1 spike recording in slices); format: cell-based; conditions: rat hippocampal slices, CA1 pyramidal cell layer, Krebs-Ringer solution 33° C., read-out: Minimum effective concentration to induce firing of hippocampus nervous cell
# Protocol: Male Wister rats (body weight: 300 -350 g) were used in the test. After cutting the head of rats, the brain was quickly taken out and […] thickness of the sliced samples of a hippocampus was prepared by a slice cutter. These samples were incubated in a nutrient solution (Krebs-Ringer solution, 33° C.) saturated with a mixed gas of 95% of oxygen gas and 5% of carbon dioxide gas for one or more hours. The test was carried out in the perfusion cisterna with perfusing at the flow speed of 1.5 ml/min. The action potential (spike) in CA1 pyramidal cell layer of the hippocampus was recorded extracellularlly by using a glass electrode filled with 2M NaCl solution. The test compounds were added to the perfusate and the change in number of the spikes with passage of time was counted by a pulse counter and recorded on the recorder. The Krebs-Ringer's solution contains 124 mM of NaCl, 5 mM of KCl, 1.24 mM of KH2 PO4, 1.3 mM of MgSO4, 2.4 mM of CaCL2, 26 mM of […] and 10 mM of glucose.
# [3] = test system: glutamate receptor (NMDA type, Quisqualate type and Kainate type); assay: Affinity for the glutamate receptors of the brain, 3 sub-types taken together; format: binding, rat; conditions: summary of Table 5
# Text: (§1) The receptors of the exitatory amino acid (especially, glutamate) are classified into NMDA type, Quisqualate type and Kainate type. 3H-CPP [3-(2-carboxypiperazin-4-yl)propyl-1-[…]] as the ligand (a radio active substance which has high affinity for the receptor) for the NMDA-type-receptor, ^3 H-AMPA (DL-α-amino-3-hydroxy-5-methylisoxazole-4-propionic acid) as the ligand for the quisqualate-type-receptor, and ^3 H-kainic acid as the ligand for the kainate-type-receptor were used respectively. A sample of the crude synaptic membrane prepared from the forebrain of rat was washed 4 times by Tris hydrochloric acid buffer (pH 7.1) and kept in a freezing condition at -20° C. until its use.
# (§2) Samples of the frozen crude synaptic membrane were melted and, after floating on 50 mM Tris hydrochloric acid buffer (pH 7.1), incubated for 30 minutes at 37° C. After the incubation, the synaptic membrane was centrifuged (48,000×g) and washed 3 times with 50 mM Tris hydrochloric acid buffer and used in the test.
# (§3) In the binding assay of the NMDA-type-receptor, samples of the synaptic membrane were incubated in the presence or absence of a test compound together with 10 nM ^3 H-CPP in 50 mM Tris hydrochloric acid buffer (pH 7.1, 0° C.) for 15 minutes. The sediment (pellet) containing synapse membrane which was recovered by centrifugation of the incubation solution was rinsed with 50 mM Tris hydrochloric acid buffer (pH 7.1) and dissolved in 0.5 ml of Protosol® (made by New England Nuclear Inc.). In the binding assay of Quisqualate-type-receptor and Kainate-type-receptor, samples of the synapse was incubated in the presence or absence of a test compound in 5 nM ^3 H-AMPA (Quisqualate-type-receptor) or 2 nM ^3 H-Kainic acid (Kainate-type-receptor) together with 50 mM Tris hydrochloric acid buffer (pH 7.1, 0° C.) for 90 minutes. The solution was filtered with Whatman GF/B filter (Whatman®, made by Whatman Inc.) under reduced pressure and the filter was washed 3 times with 50 mM Tris hydrochloric acid buffer. The radioactivity on the filter was measured by a conventional method. The specific binding amount was determined by subtracting the non-specific binding from the total binding, taking the binding in the presence of an excessive non-radioactive L-sodium glutamate (1 mM) as the amount of the non-specfic binding, i.e., the binding to anything other than the receptor. The 50% inhibiting concentration (IC50) of the compound to be tested was determined as the concentration which inhibits 50% of the specific receptor binding of ^3 H-CPP, ^3 H-AMPA or ^3 H-kainic acid.
# [4] = target: Kainate-type receptor; assay: Binding assay of Kainate-type receptor (3H-kainic acid) on rat forebrain crude synaptic membrane
# Text: as §1, §2
# as §3, with “receptor.” for “receptor. The 50% inhibiting concentration (IC50) of the compound to be tested was determined as the concentration which inhibits 50% of the specific receptor binding of ^3 H-CPP, ^3 H-AMPA or ^3 H-kainic acid.”
# [5] = Solubility; format: physicochemical
# [6] = Acute toxicity in mouse; conditions: in vivo, any administration routes (iv, ip, sc, po)
# [7] = target: Quisqualate-type receptor; assay: Binding assay of Quisqualate-type receptor (3H-AMPA) on rat forebrain crude synaptic membrane
# Text: as §1, §2
# as §3, with “receptor.” for “receptor. The 50% inhibiting concentration (IC50) of the compound to be tested was determined as the concentration which inhibits 50% of the specific receptor binding of ^3 H-CPP, ^3 H-AMPA or ^3 H-kainic acid.”
# [8] = target: NMDA-type receptor; assay: Binding assay of NMDA-type receptor (3H-CPP) on rat forebrain crude synaptic membrane; conditions: 10 nM 3H-CPP, pH 7.1, 0° C., 15 min; read-out: Affinity to NMDA-type receptor (3H-CPP), IC50
# Text: as §1, §2, §3
# [9] = starting material heated in aqueous solution, 1 hour
structure (smiles),measurement,setting,value
"N[C@@H](Cc1c[nH]oc1=O)C(=O)O [Compound 1, TAN-950A]",Conversion in aqueous solution (in words),[1]; aqueous solution,"converted mainly to TAN-950B and D, but slightly to TAN-950C and E"
same,"TAN-950A in resulting substance, area percentage by HPLC",[1]; [9],63.8%
same,"TAN-950B in resulting substance, area percentage by HPLC",[1]; [9],13.0%
same,"TAN-950C in resulting substance, area percentage by HPLC",[1]; [9],5.7%
same,"TAN-950D in resulting substance, area percentage by HPLC",[1]; [9],12.1%
same,"TAN-950E in resulting substance, area percentage by HPLC",[1]; [9],3.1%
same,minimal effective concentration,"[2]; Rattus norvegicus, Neuron",≥ 300 µM
same,minimal effective concentration,[2]; listed as 1 (sodium salt),300 µM
same,Affinity to the 3 sub-type receptors (in words),[3],high affinities to the 3 sub-type receptors
same,"Affinity to Kainate-type receptor (3H-KA), IC50","[4]; 2 nM 3H-Kainic acid, pH 7.1, 0° C., 90 min",3.6 µM
same,Affinity to the Kainate-type-receptor (in words),[4]; summary of Table 5,strong affinity
same,Solubility in acetone,[5]; acetone,Sparingly soluble
same,Solubility in chloroform,[5]; chloroform,Sparingly soluble
same,Solubility in dimethylsulfoxide,[5]; dimethylsulfoxide,Soluble
same,Solubility in ethyl acetate,[5]; ethyl acetate,Sparingly soluble
same,Solubility in methanol,[5]; methanol,Soluble
same,Solubility in water,[5]; water,Soluble
same,LD50,[6],> 4000 mg/kg
same,IC50,"[7]; 5 nM 3H-AMPA, pH 7.1, 0° C., 90 min, read-out: Affinity to Quisqulate-type receptor (3H-AMPA), IC50",0.28 µM
same,Affinity to the Quisqualate-type-receptor (in words),[7]; summary of Table 5,strong affinity
same,IC50,[8],19 µM
